17 molecules from ChEMBL document CHEMBL1833893, “Synthesis and anticonvulsant activity of new 1-[2-oxo-2-(4-phenylpiperazin-1-yl)ethyl]pyrrolidine-2,5-diones” (Bioorg Med Chem Lett, 2011) can be followed below.

The test system of data set [1] is Mus musculus. The experiment in a line: Anticonvulsant activity in albino CF1 mouse assessed as protection against subcutaneous pentylenetetrazole-induced seizures at 300 mg/kg, ip after 4 hrs. It is filed as functional, organism-based. The arrangement: dose 300 mg/kg.
For data set [2], the system named is Mus musculus. The experiment in a line: Anticonvulsant activity in albino CF1 mouse assessed as protection against subcutaneous pentylenetetrazole-induced seizures at 300 mg/kg, ip after 0.5 hrs. The format is functional, organism-based. The arrangement: dose 300 mg/kg.
Data set [3] concerns Mus musculus. The experiment in a line: Anticonvulsant activity in ip dosed albino CF1 mouse assessed as protection against maximal electroshock-induced seizures after 0.5 hrs. The format is functional. As to conditions: read-out: MED. For orientation: Protection in the maximal electroshock model is a classic sign of anticonvulsant action.
Data set [4] relates to Mus musculus. The data set can be described thus: Neurotoxicity in albino CF1 mouse assessed as motor impairment at 300 mg/kg, ip after 4 hrs by rotarod test. The format is toxicity, organism-based. Also on record: dose 300 mg/kg, route intraperitoneal. The conditions noted are these: in vivo. A general note: In the rotarod test animals must keep their balance on a rotating rod.

For data set [5], the system named is Mus musculus. The data set can be described thus: Anticonvulsant activity in albino CF1 mouse assessed as protection against maximal electroshock-induced seizures at 300 mg/kg, ip after 4 hrs. The format is functional, organism-based. Also on record: dose 300 mg/kg.
Data set [6] concerns Mus musculus. The experiment in a line: Neurotoxicity in albino CF1 mouse assessed as motor impairment at 300 mg/kg, ip after 0.5 hrs by rotarod test. It is filed as toxicity, organism-based. The conditions noted are these: in vivo. The arrangement: dose 300 mg/kg, route intraperitoneal.
In data set [7] the test system is Mus musculus. The experiment in a line: Neurotoxicity in ip dosed albino CF1 mouse assessed as minimum dose required to cause motor impairment after 0.5 hrs by rotarod test. It is filed as toxicity, organism-based. The conditions noted are these: in vivo.
In data set [8] the test system is Rattus norvegicus. The experiment in a line: Anticonvulsant activity in Sprague-Dawley rat assessed as protection against maximal electroshock-induced seizures at 30 mg/kg, po after 0.5 hrs. It is filed as functional.
For data set [9], the system named is Rattus norvegicus. The experiment in a line: Anticonvulsant activity in Sprague-Dawley rat assessed as protection against maximal electroshock-induced seizures at 30 mg/kg, po after 0.25 hrs. The format is functional.
The subject of data set [10] is Mus musculus. The experiment in a line: Anticonvulsant activity in ip dosed albino CF1 mouse assessed as protection against subcutaneous pentylenetetrazole-induced seizures after 0.5 hrs. It is filed as functional. The conditions noted are these: albino CF1, 0.5 h, read-out: MED.
For data set [11], the system named is Mus musculus. The experiment in a line: Anticonvulsant activity in albino CF1 mouse assessed as protection against electrically-induced seizure at 100 mg/kg, ip after 0.25 hrs by 6Hz psychomotor seizure test. It is filed as functional. The conditions noted are these: route intraperitoneal.
Data set [12] concerns Mus musculus. The data set can be described thus: Anticonvulsant activity in ip dosed albino CF1 mouse assessed as protection against maximal electroshock-induced seizures after 4 hrs. It is filed as functional. The conditions noted are these: read-out: MED.
The test system of data set [13] is Rattus norvegicus. The experiment in a line: Anticonvulsant activity in Sprague-Dawley rat assessed as protection against maximal electroshock-induced seizures at 30 mg/kg, po after 1 hr. The format is functional.
Data set [14] deals with Rattus norvegicus. The experiment in a line: Anticonvulsant activity in Sprague-Dawley rat assessed as protection against maximal electroshock-induced seizures at 30 mg/kg, po after 2 hrs. It is filed as functional.
Data set [15] concerns Rattus norvegicus. The experiment in a line: Anticonvulsant activity in Sprague-Dawley rat assessed as protection against maximal electroshock-induced seizures at 30 mg/kg, po after 4 hrs. The format is functional.
The subject of data set [16] is Mus musculus. The data set can be described thus: Anticonvulsant activity in albino CF1 mouse assessed as protection against electrically-induced seizure at 100 mg/kg, ip after 1 hr by 6Hz psychomotor seizure test. The format is functional.
Data set [17] relates to Mus musculus. The experiment in a line: Anticonvulsant activity in albino CF1 mouse assessed as protection against electrically-induced seizure at 100 mg/kg, ip after 0.5 hrs by 6Hz psychomotor seizure test. It is filed as functional. As to conditions: route intraperitoneal.
For data set [18], the system named is Mus musculus. The experiment in a line: Anticonvulsant activity in albino CF1 mouse assessed as protection against electrically-induced seizure at 100 mg/kg, ip after 4 hrs by 6Hz psychomotor seizure test. It is filed as functional.
The subject of data set [19] is Mus musculus. The experiment in a line: Neurotoxicity in ip dosed albino CF1 mouse assessed as minimum dose required to cause motor impairment after 4 hrs by rotarod test. It is filed as toxicity, organism-based. The conditions noted are these: in vivo.
In data set [20] the test system is Mus musculus. The experiment in a line: Anticonvulsant activity in albino CF1 mouse assessed as protection against electrically-induced seizure at 100 mg/kg, ip after 2 hrs by 6Hz psychomotor seizure test. The format is functional.

Active and inactive are the calls of the source. The rule behind the calls is not given here.

As for `O=C(CN1C(=O)CCC1=O)N1CCN(c2ccccc2)CC1`, the outcome in data set [1], in [2] and in data set [5] was inactive. The minimal effective dose in data set [3] was 300 mg/kg. Also, the Activity entry in data set [4] and in data set [6] was “Non-toxic” each time.

`CCC1(CC)CC(=O)N(CC(=O)N2CCN(c3ccccc3Cl)CC2)C1=O`: the result in data set [1], in data set [2] and in [5] was inactive. Further, in data set [3], the minimal effective dose was 300 mg/kg. For the same molecule, the MTC in [7] was 300 mg/kg. Also, the Activity entry in data set [4] is reported as “Non-toxic”.

As for `CC1(C)CC(=O)N(CC(=O)N2CCN(c3ccc(F)cc3)CC2)C1=O`, the result in [1], in [8], in data set [9], in [13], in data set [14] and in data set [15] was inactive. Besides, the minimal effective dose in data set [3] turned out to be 100 mg/kg; in data set [10], 300 mg/kg; in data set [12] it was 100 mg/kg. Further, the Activity in [11] is 100%; in [4], “Non-toxic”; in [16] (route intraperitoneal), 75%; in data set [17] it was 100%. The MTC in data set [7] was 300 mg/kg.

Consider `CC1CC(=O)N(CC(=O)N2CCN(c3ccc(F)cc3)CC2)C1=O` (stereo not given), for which the outcome in data set [1], in data set [2] and in data set [18] was inactive. For the same molecule, the results for the minimal effective dose in [3] and in data set [12] were 300 mg/kg and 100 mg/kg, respectively. For the same molecule, the Activity entry in data set [4] is recorded as “Non-toxic”; in data set [6] it was “Non-toxic”; in [16] (route intraperitoneal), 75%; in data set [17], 75%.

Consider `CC1(C)CC(=O)N(CC(=O)N2CCN(c3cccc(C(F)(F)F)c3)CC2)C1=O`, for which the result in [1], in data set [8], in data set [2], in [13], in data set [14] and in data set [15] was inactive. The minimal effective dose in data set [3] and in [12] was 100 mg/kg each time. For the same molecule, the Activity result is recorded as “Non-toxic” in [4], “Non-toxic” in data set [6], 75% in [16] (route intraperitoneal) and 75% in data set [17].

With `CC1CC(=O)N(CC(=O)N2CCN(c3cccc(C(F)(F)F)c3)CC2)C1=O` (stereo not given), the outcome in data set [1], in [8], in data set [9] and in data set [18] was inactive. Also, the values for the minimal effective dose in data set [3], in data set [10] and in data set [12] were 100 mg/kg, 300 mg/kg and 100 mg/kg, respectively. Further, the Activity in [11] is listed as 100%; in [20] (route intraperitoneal), 75%; in [16] (route intraperitoneal) it was 100%; in data set [17], 100%. Moreover, the MTC in data set [7] and in data set [19] was 300 mg/kg each time.

For `O=C(CN1C(=O)CCC1=O)N1CCN(c2ccccc2Cl)CC1`, the result in data set [1], in [8], in data set [9], in [13], in data set [18] and in [5] was inactive. Also, the outcome in [14], in data set [15], in data set [20] and in data set [16] was inactive. Moreover, the minimal effective dose in data set [3] came to 100 mg/kg; in data set [10], 300 mg/kg. The results for the Activity in [11] and in data set [4] were 75% and “Non-toxic”, respectively. Moreover, the MTC in data set [7] turned out to be 300 mg/kg.

`CC1CC(=O)N(CC(=O)N2CCN(c3ccccc3Cl)CC2)C1=O` (stereo not given): the outcome in data set [1], in data set [8], in [13], in [18], in data set [5] and in [14] was inactive. Also, the outcome in [15] and in data set [20] was inactive. Further, the minimal effective dose in data set [3] and in data set [10] was 300 mg/kg throughout. The Activity was 75% in data set [9], 100% in data set [11], “Non-toxic” in [4] and 100% in [17]. Moreover, the MTC in [7] came out at 300 mg/kg.

As for `CC1CC(=O)N(CC(=O)N2CCN(c3ccccc3F)CC2)C1=O` (stereo not given), the result in data set [1] and in data set [2] was inactive. Further, the minimal effective dose in data set [3] and in [12] was 300 mg/kg in each case. Besides, in data set [7], the MTC turned out to be 300 mg/kg. Also, in data set [4], the Activity result is given as “Non-toxic”.

For `O=C(CN1C(=O)CCC1=O)N1CCN(c2ccccc2F)CC1`, the outcome in data set [1] was inactive. Moreover, the minimal effective dose in data set [3] and in data set [10] was 300 mg/kg each time. For the same molecule, the MTC in [7] was found to be 300 mg/kg. Further, the Activity result in [4] is “Non-toxic”.

Turning to `CC1(C)CC(=O)N(CC(=O)N2CCN(c3ccccc3F)CC2)C1=O`, the outcome in [1], in data set [2] and in data set [5] was inactive. Besides, the minimal effective dose in [3] turned out to be 300 mg/kg. For the same molecule, the Activity result in [4] and in data set [6] was “Non-toxic” each time.

Consider `CCC1(CC)CC(=O)N(CC(=O)N2CCN(c3cccc(C(F)(F)F)c3)CC2)C1=O`, for which the result in data set [1] and in data set [2] was inactive. The minimal effective dose in data set [3] and in [12] was 300 mg/kg in each case. The Activity entry in [4] and in data set [6] was “Non-toxic” in each case.

For `CC1(C)CC(=O)N(CC(=O)N2CCN(c3ccc(Cl)cc3)CC2)C1=O`, the outcome in [1], in data set [8], in data set [9] and in data set [13] was inactive. Further, the results for the minimal effective dose in data set [3], in [10] and in data set [12] were 100 mg/kg, 300 mg/kg and 100 mg/kg, respectively. Moreover, the Activity is 100% in data set [11]; “Non-toxic” in data set [4]; 100% in data set [15]; 100% in [16] (route intraperitoneal); 100% in data set [17]. In addition, in data set [7], the MTC worked out at 300 mg/kg.

Regarding `O=C1NC(=O)C(c2ccccc2)(c2ccccc2)N1` [PHENYTOIN], the outcome in data set [1] and in data set [2] was inactive. The Activity in [8] is recorded as 100%; in data set [13] it was 75%; in data set [14], 75%; in data set [15] it was 75%. Besides, the minimal effective dose in data set [3] and in [12] was 30 mg/kg throughout. Also, the MTC in [7] and in data set [19] was 100 mg/kg throughout.

Turning to `O=C(CN1C(=O)CCC1=O)N1CCN(c2ccc(F)cc2)CC1`, the outcome in data set [1] and in [2] was inactive. Further, the minimal effective dose in data set [3] and in [12] was 300 mg/kg in each case. In addition, the Activity entry in [4] and in [6] was “Non-toxic” each time.

Take `CC1CC(=O)N(CC(=O)N2CCN(c3ccc(Cl)cc3)CC2)C1=O` (stereo not given): the outcome in data set [1] and in [2] was inactive. Besides, the Activity in data set [8] was 75%; in data set [11], 75%; in [13], 75%; in data set [6] it was “Non-toxic”; in [14], 75%; in data set [15], 75%. In addition, the Activity in data set [16] (route intraperitoneal) is on record as 75%. In addition, the values for the minimal effective dose in data set [3] and in data set [12] were 300 mg/kg and 100 mg/kg, respectively. Besides, the MTC in data set [19] amounted to 300 mg/kg.

`CC1(C)CC(=O)N(CC(=O)N2CCN(c3ccccc3Cl)CC2)C1=O`: the outcome in [1], in data set [2] and in [5] was inactive. Also, the minimal effective dose in data set [3] stood at 300 mg/kg. The Activity entry in data set [4] and in data set [6] was “Non-toxic” each time.
